This assay concerns the target T1, Citrate synthase, peroxisomal [1-24] (Saccharomyces cerevisiae, UniProt P08679).
T1 construct: 1-24
In words: CIT2-GFP expression modulators in yeast, dose response, flow cytometry, MLPCN hits (AID 2744). On the technique in general: In flow cytometry, cells or beads pass a laser one at a time.

Structures are written as SMILES.

T1 sequence (P08679 1-24): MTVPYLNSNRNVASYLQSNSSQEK

As a reminder, the EC50 is the concentration giving half of the maximal effect. A high value points to a need for much substance. `O=C(Nc1ccccc1)ON=C1CCCC1` [cyclopentanone O-(anilinocarbonyl)oxime] gave a concentration giving a half-maximal response (EC50) of more than 33 µM.

As to `ClC(Cl)(c1nnnn1-c1ccccc1)c1nnnn1-c1ccccc1` [SMR000173835], the 50% effective concentration (EC50) was more than 33 µM.

Values taken from BindingDB's records for doi:10.7270/Q25H7DRT (Nmmlsc, 2010).
